The text below walks through data of patent publication US20220009920A1 (GB005, Inc., priority 2020, published 2022).

Experiment in all cases: Large panel kinase profiling
What all share (format): biochemical
Common to all, as to settings: 1 μM test article, 1 mM ATP

The target in one test is T1, TYRO3 (Homo sapiens, UniProt Q06418).
T1 construct: AssayQuant Technologies, Inc. (contract laboratory that ran the panel)
T1 sequence (Q06418 41-890): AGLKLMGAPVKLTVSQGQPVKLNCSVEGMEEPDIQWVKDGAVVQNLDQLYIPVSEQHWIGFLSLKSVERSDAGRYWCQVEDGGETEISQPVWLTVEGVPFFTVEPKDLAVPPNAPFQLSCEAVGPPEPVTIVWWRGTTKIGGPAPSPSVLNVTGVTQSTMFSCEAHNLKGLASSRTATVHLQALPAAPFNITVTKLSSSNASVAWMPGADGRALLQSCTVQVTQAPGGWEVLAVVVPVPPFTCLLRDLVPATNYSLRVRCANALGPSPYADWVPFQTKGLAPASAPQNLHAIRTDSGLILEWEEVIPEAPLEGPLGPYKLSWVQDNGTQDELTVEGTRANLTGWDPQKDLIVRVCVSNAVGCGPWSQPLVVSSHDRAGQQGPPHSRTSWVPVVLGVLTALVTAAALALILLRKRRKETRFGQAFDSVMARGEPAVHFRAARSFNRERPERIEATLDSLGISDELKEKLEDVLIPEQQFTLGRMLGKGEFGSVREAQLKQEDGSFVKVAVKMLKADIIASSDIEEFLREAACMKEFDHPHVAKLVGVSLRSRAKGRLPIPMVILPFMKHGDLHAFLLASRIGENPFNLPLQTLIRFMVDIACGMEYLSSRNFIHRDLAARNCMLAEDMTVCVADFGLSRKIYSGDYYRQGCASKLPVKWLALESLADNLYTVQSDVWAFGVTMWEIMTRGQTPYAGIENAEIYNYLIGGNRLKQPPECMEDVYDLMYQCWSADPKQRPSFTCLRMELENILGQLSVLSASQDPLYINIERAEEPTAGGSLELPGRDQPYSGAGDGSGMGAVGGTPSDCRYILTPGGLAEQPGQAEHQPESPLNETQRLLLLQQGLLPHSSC
An outline of the steps:
(§1)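 Single-point profiling at 1 μM test article used 1 mM ATP. Phosphorylation was tracked by sensor fluorescence increase over time at 30° C., with readings each minute at excitation 360 nm and emission 485 nm.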

The target in the next test is T2, HIPK4 (Homo sapiens, UniProt Q8NE63).
T2 construct: AssayQuant Technologies, Inc. (service provider)
T2 sequence (Q8NE63 1-616): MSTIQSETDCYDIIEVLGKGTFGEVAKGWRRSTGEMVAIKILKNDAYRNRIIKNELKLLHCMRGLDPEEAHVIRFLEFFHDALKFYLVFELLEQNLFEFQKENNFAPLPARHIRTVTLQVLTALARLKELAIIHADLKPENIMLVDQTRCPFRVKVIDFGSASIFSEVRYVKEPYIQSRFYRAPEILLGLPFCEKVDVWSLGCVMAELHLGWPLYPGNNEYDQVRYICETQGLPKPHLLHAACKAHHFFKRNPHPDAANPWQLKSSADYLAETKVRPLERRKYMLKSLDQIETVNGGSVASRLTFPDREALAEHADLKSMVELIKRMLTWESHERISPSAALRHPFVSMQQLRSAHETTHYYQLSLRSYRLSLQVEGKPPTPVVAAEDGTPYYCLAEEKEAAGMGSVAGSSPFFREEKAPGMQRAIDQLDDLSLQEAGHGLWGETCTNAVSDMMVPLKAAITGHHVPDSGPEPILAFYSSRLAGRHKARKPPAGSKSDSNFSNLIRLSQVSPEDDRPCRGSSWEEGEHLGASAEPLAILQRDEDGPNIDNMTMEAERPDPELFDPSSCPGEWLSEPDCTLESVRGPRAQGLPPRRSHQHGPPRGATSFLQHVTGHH
An outline of the steps:
as §1

Another test deals with ERBB4/HER4 (Homo sapiens, UniProt Q15303). An outline of the steps: as §1
ERBB4/HER4, sequence (Q15303 26-1308): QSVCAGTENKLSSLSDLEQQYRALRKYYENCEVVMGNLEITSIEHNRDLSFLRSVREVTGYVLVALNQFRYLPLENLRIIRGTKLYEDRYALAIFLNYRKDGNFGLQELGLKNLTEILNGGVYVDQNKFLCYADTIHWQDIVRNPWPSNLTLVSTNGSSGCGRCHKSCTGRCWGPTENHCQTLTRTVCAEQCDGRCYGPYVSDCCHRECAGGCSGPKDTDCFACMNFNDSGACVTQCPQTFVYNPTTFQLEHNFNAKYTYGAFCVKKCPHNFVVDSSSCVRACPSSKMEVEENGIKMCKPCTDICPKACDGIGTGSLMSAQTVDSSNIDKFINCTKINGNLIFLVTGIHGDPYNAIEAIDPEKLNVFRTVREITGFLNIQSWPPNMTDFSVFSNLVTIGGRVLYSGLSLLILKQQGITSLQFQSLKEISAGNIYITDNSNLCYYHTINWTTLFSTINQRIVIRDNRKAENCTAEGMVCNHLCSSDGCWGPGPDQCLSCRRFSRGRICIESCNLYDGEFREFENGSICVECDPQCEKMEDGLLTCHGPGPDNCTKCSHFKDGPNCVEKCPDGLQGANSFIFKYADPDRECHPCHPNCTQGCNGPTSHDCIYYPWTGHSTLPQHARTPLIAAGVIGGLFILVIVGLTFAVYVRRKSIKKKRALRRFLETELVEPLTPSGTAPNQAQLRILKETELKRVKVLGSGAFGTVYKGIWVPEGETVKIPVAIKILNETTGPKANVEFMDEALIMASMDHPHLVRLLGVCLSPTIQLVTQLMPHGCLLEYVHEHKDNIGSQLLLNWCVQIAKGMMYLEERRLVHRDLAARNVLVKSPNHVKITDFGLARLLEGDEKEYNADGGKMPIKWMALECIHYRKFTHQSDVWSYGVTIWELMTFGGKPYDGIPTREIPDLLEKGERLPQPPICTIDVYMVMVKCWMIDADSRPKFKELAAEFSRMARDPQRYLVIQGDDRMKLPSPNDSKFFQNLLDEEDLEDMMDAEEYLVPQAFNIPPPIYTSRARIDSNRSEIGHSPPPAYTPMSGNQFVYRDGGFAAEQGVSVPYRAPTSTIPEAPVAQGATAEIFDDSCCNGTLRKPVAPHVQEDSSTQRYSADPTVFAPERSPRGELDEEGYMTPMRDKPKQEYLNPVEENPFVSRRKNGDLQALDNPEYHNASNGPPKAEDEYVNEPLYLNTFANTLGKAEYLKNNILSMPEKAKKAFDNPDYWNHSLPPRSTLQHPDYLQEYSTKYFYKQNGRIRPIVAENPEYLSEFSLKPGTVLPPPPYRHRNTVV
The next test has as its target T3, CAMKK2 (Homo sapiens, UniProt Q96RR4).
T3 construct: AssayQuant Technologies, Inc. (ran the panel)
The gist of the method: as §1

The next test has as its target T4, NEK7 (Homo sapiens, UniProt Q8TDX7).
T4 construct: AssayQuant Technologies, Inc. (assay service)
The gist of the method: as §1

T3 sequence (Q96RR4 whole entry, species assumed): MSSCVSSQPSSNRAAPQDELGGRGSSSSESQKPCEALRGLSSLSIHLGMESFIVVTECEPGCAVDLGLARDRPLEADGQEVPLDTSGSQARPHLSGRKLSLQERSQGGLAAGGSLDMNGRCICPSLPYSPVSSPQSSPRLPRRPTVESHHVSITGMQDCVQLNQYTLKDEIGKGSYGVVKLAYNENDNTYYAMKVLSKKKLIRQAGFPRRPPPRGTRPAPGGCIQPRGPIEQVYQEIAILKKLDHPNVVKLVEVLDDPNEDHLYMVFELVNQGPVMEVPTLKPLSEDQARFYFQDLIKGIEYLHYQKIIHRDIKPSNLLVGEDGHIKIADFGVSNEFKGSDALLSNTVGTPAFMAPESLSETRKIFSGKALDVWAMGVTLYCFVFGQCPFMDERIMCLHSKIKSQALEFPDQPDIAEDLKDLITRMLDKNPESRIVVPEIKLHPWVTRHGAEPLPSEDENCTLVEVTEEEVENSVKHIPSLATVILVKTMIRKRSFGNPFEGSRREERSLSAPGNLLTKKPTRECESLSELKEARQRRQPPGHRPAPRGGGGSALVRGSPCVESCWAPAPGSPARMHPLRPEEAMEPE
T4 sequence (Q8TDX7 whole entry, species assumed): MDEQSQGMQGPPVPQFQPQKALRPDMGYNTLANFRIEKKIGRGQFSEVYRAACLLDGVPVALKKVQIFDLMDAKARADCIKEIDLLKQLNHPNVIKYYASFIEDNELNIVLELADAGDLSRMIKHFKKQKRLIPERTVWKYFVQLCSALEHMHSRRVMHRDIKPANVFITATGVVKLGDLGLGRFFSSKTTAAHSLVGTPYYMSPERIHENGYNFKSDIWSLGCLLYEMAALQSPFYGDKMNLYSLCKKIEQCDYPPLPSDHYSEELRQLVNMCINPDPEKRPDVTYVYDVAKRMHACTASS

`C=CC(=O)N1CCC[C@@H](c2c(F)cc(C(N)=O)c3[nH]c4c(c23)CCC4)C1` [Compound 10-2, (S)-8-(1-acryloylpiperidin-3-yl)-7-fluoro-1,2,3,4-tetrahydrocyclo-penta[b]indole-5-carboxamide]: the inhibition at 1 µM was 10.1% against TYRO3; 24.3% on HIPK4; 17.1% against ERBB4/HER4; 2.6% at CAMKK2; -22.6% against NEK7.

`C=CC(=O)N1CCCC(c2c(F)cc(C(N)=O)c3[nH]c4c(c23)CCCCC4)C1` (single isomer, unassigned) [Compound 5-6]: the inhibition at 1 µM at TYRO3 was 2.4%; against HIPK4 it was -1.6%; against ERBB4/HER4, -19.7%; against CAMKK2, 25.8%; against NEK7, 14.6%.

With `C=CC(=O)N1CCC[C@@H](c2c(F)cc(C(N)=O)c3[nH]c4c(c23)CC2(CC4)CC2)C1` [Compound 6-2, (S)-5-(1-acryloylpiperidin-3-yl)-6-fluoro-1,2,4,9-tetrahydrospiro[carbazole-3,1′-cyclopropane]-8-carboxamide], the inhibition at 1 µM against TYRO3 was 14.7%; at HIPK4, -1.9%; at ERBB4/HER4, 2.4%; against CAMKK2, 0.4%; against NEK7, 13.8%.

The inhibition is the drop in the measured response relative to a control, in per cent.
